Data taken from patent US4794114A, “Inhibition of interleukin-1 production by monocytes and/or macrophages” (SmithKline Beckman Corporation, priority 1987, dated 1988).
Read-outs that look alike come from different tables or passages of the source.

Key:
[1] = test system: IL-1 production by human monocytes; assay: in vitro IL-1 production by LPS-stimulated human peripheral blood monocytes (EL-4 readout); format: cell-based; conditions: for inhibition at 1 µM / inhibition at 10 µM / inhibition at 0.1 µM / IC50: Homo sapiens, Monocyte; for IC50: 1 ng/ml LPS, 1 hr pretreatment
Protocol: The effects of antiinflammatory/antiarthritic drugs of different classes, including Compound 1 on the in vitro production of IL-1 by human monocytes was examined.
(§1) Bacterial lipopolysaccharide (LPS) was used to induce IL-1 production by human peripheral blood monocytes. IL-1 activity was measured by its ability to stimulate a Interleukin 2 (IL-2) producing cell line (EL-4) to secrete IL-2, in concert with A23187 ionophore, according to the method of Simon et al., J. Immunol. Methods, 84, 85, (1985). Human peripheral blood monocytes were isolated and purified from either fresh blood preparations from volunteer donors, or from blood Bank buffy coats, according to the procedure of Colotta et al., J. Immunol., 132, 936 (1984). 1×10^6 of such monocytes are plated in 24-well plates at a concentration of 2 million/ml per well. The cells were allowed to adhere for 2 hours, after which time non-adherent cells were removed by gentle washing. Test compounds were then added to the cells for 1 hour (hr) before the addition of lipopolysaccharide (10 ng/ml unless otherwise noted), and the cultures were incubated at 37° C. for an additional 24 hours. At the end of the incubation period, culture supernatants were removed and clarified of cells and all debris. Culture supernatants were immediately assayed for IL-1 biological activity as well as prostaglandin and/or leukotriene concentrations by radioimmunoassay.
^(a) All compounds, except chloroquine, were dissolved in absolute
ethanol at 10^-2 M, which was subsequently diluted further in tissue
assay system at doses tested. Furthermore, test samples were dialyzed
prior to testing in the IL1 assay.
In order to elucidate the mechanism by which Compound 1 mediates its anti-inflammatory activity, the ability of this compound and two closely related analog metabolites, (i.e., the analogs of Compound 1 wherein X is S(0)n and n is 1 or 2) to inhibit human IL-1 production in vitro was evaluated according to the method of Example 1. Briefly, 1×10^6 human peripheral blood monocytes were plated in 24-well plates and allowed to adhere for 1 hr at 37° C. The above compounds were added to a final concentration of 10^-5 M to 10^-8 M. The monocytes were stimulated to produce IL-1 with 1 ng/ml LPS after a 1 hr pretreatment of the cells with the respective compounds.
The inhibitory effect of additional compounds of Formula (I) on the in vitro production of IL-1 production of IL-1 by human monocytes was determined according to the procedure of Examples 1 and 2.

[2] = test system: C57B1/6 mice; assay: lethality of LPS in D-galactosamine treated C57B1/6 mice; format: in vivo, mouse; conditions: for Lethality, No. of Death/Total No.: D-Galactosamine 500 mg/kg i.v.
Protocol: (§2) Mice are very resistant to the lethal effects of bacterial lipopolysaccharides (LPS). D-Galactosamine (D-GALN) induces a high degree of sensitization to the lethal effects of LPS in mice and other experimental animals. [See, Galanos et al., Proc. Natl. Acad Sci. USA., 76, 5939 (1979)]. In mice, depending on the strain and age, the sensitivity to endotoxin can be increased many thousand-fold.
A number of preliminary experiments were carried out to establish this model of lethal endotoxin shock. LPS concentrations of up to 1 mg/mouse are not lethal in C57B1/6 mice. When injected i.v. with D-GALN (500 mg/kg), however, the sensitivity increases so that 0.1 ug becomes a lethal dose (Table 5). The concentration of D-GALN required to obtain this effect is 400-500 mg/kg.
All compounds were administered i.v.

[3] = test system: PGE2; assay: in vitro prostaglandin (PGE2) synthesis by LPS-stimulated human monocytes, RIA; format: cell-based; conditions: for inhibition at 10 µM / inhibition at 1 µM / inhibition at 0.1 µM: Homo sapiens, Monocyte, read-out: % Inhibition PGE2
Protocol: as §1
^(c) PGE2 was assayed using an RIA kit.

[4] = test system: IL-1 production by splenic adherent cells; assay: adjuvant-induced arthritis in the rat: IL-1 production by LPS-stimulated splenic adherent cells; format: in vivo; conditions: for IL-1 Production (splenic adherent cells), % normal control: mg/kg: Compound 1 60, indomethacin 2.0, prednisolone 10, methotrexate 0.3, D-penicillamine 50; for effect in adjuvant arthritic rats: short-term treatment
Protocol: (§3) Adjuvant-induced arthritis in the rat is a model of systemic inflammation with characteristics similar to rheumatoid arthritis in man. […] This model was employed to assess the effect of Compound 1 in vivo on this elevated IL-1 production. Briefly, rats were injected on day 0 with Freund's complete adjuvant in the right hind leg. Drugs were prepared as a suspension in tragacanth and administered daily per os either prophylactically (days 1 to 16) or therapeutically in a short-term modality (days 14 to 16). In all cases, final administration of drug occurred at 3 hours prior to sacrifice. Spleens were removed from these rats and the adherent cells were assessed for their ability to produce IL-1 in vitro in response to stimulation by LPS.
(§4) PROPHYLACTIC TREATMENT: Drugs were administered daily p.o. as a suspensio
(§5) in tragacanth from day 1 to day 16. Final dose given 3 hrs before
(§6) TREATMENT: Drugs were administered daily p.o. as above from
(§7) day 14 to day 16. Final dose given 3 hrs before sacrifice.
(§8) ***P < 0.01 Indomethacin 2.0 mg/kg
(§9) **P < 0.05 Compound 1 60 mg/kg
(§10) *P < 0.10 Prednisolone 10 mg/kg
(§11) D-Penicillamine 50 mg/kg

[5] = test system: adjuvant-induced arthritis in the rat; assay: adjuvant-induced arthritis in the rat: right leg paw edema; format: in vivo; conditions: mg/kg: Compound 1 60, indomethacin 2.0, prednisolone 10, methotrexate 0.3, D-penicillamine 50
Protocol: as §3, §4, §5, §6, §7, §8, §9, §10, §11

[6] = test system: splenic adherent cells; assay: adjuvant-induced arthritis in the rat: % splenic adherent cells; format: in vivo; conditions: mg/kg: Compound 1 60, indomethacin 2.0, prednisolone 10, methotrexate 0.3, D-penicillamine 50
Protocol: as §3, §4, §5, §6, §7, §8, §9, §10, §11

[7] = test system: endotoxin shock in C57B1/6 mice; format: in vivo, mouse; conditions: for protection from lethal effects of LPS/GALN: mouse, in vivo
Protocol: as §2
A number of preliminary experiments were carried out to establish this model of lethal endotoxin shock.

[8] = in vitro; format: cell-based, human; conditions: human, peripheral blood monocytes
Protocol: as §1
^(b) At doses at or above 10^-5 M, this compound exerted some

[9] = test system: IL-1 production by human monocytes; conditions: Lipsky, Amer. J. Med. 75, Supp. 1A, 19 (1983); cited from earlier work
[10] = test system: murine model of endotoxin shock; conditions: Hagmann et al., 1982; cited from earlier work
[11] = 10^-6 M, Table 3, read-out: % Inhibition @ 10^-6 M
[12] = 10^-5 M, read-out: % Inhibition IL-1
[13] = 10^-6 M, read-out: % Inhibition IL-1
[14] = 10^-7 M, read-out: % Inhibition IL-1
[15] = prophylactic, daily p.o. days 1-16
[16] = therapeutic, daily p.o. days 14-16

Fc1ccc(-c2c(-c3ccncc3)nc3n2CCS3)cc1 [Compound 4]
inhibition at 1 µM [1, 11]: 46%

N[C@H]1C(O)O[C@H](CO)[C@H](O)[C@@H]1O (stereo partly drawn) [D-Galactosamine]
Lethality, No. of Death/Total No. ([2]; 6 Hr.): 0/10 | Lethality, No. of Death/Total No. ([2]; 24 Hr.): 0/10 | D-GALN concentration required to sensitize to LPS ([2]; with LPS, i.v.): 400 to 500 mg/kg

CC(C)Cc1ccc(C(C)C(=O)O)cc1 (stereo not drawn) [Ibuprofen, ibuprofen]
inhibition of IL-1 production [1]: virtually no effect on IL-1 production | inhibition at 10 µM [1, 12]: 9% | inhibition at 1 µM [1, 13]: 0% | inhibition at 0.1 µM [1, 14]: 0% | inhibition of prostaglandin synthesis [3]: highly active in inhibiting prostaglandin synthesis | inhibition at 10 µM ([3]; 10^-5 M): 97% | inhibition at 1 µM ([3]; 10^-6 M): 71% | inhibition at 0.1 µM ([3]; 10^-7 M): 63%

COc1ccc2c(c1)c(CC(=O)O)c(C)n2C(=O)c1ccc(Cl)cc1 [INDOMETHACIN, indomethacin]
IL-1 Production (splenic adherent cells), % normal control [4, 15]: 274 ± 100 % normal control | IL-1 Production (splenic adherent cells), % normal control [4, 16]: 330 ± 121 % normal control | effect in adjuvant arthritic rats ([4]; therapeutic): no effect | Right leg paw edema, % normal control [5, 15]: 113 ± 8 % normal control | Right leg paw edema, % normal control [5, 16]: 145 ± 18 % normal control | % Adherent Cells (splenic), % normal control [6, 15]: 480 ± 189 % normal control | % Adherent Cells (splenic), % normal control [6, 16]: 394 ± 253 % normal control

C[C@@H]1C[C@H]2[C@@H]3CCC4=CC(=O)C=C[C@]4(C)[C@@]3(F)[C@@H](O)C[C@]2(C)[C@@]1(O)C(=O)CO [Dexamethasone]
protection ([7]; administered 24 hours and 1 hour prior to LPS/GALN): provided protection

COc1ccc(-c2nc3n(c2-c2ccncc2)CCC3)cc1 [Compound 7]
inhibition at 1 µM [1, 11]: 40%

CC(Cc1ccc(O)c(O)c1)C(C)Cc1ccc(O)c(O)c1 (stereo not drawn) [NDGA, nordihydroguaiaretic acid]
inhibition of IL-1 production [1]: marginally active in inhibition of IL-1 production | inhibition at 10 µM [1, 12]: 88% | inhibition at 1 µM [1, 13]: 33% | inhibition at 0.1 µM [1, 14]: 31% | viability at 24 h, 10 µM [8]: ~50% | inhibition of prostaglandin synthesis [3]: little inhibitory effect on prostaglandin synthesis | inhibition at 10 µM ([3]; 10^-5 M): 25% | inhibition at 1 µM ([3]; 10^-6 M): 0% | inhibition at 0.1 µM ([3]; 10^-7 M): 0%

[O-][S+]1CCn2c1nc(-c1ccc(F)cc1)c2-c1ccncc1 (stereo not drawn) [Compound 2]
IC50 [1]: 0.8 µM | inhibition at 1 µM [1, 11]: 56%

CCN(CC)CCCC(C)Nc1ccnc2cc(Cl)ccc12 (stereo not drawn) [Chloroquine]
inhibition at 0.1 µM ([1]; read-out: % Inhibition IL-1): 36% | inhibition at 1 µM ([1]; read-out: % Inhibition IL-1): 46% | inhibition at 10 µM ([1]; read-out: % Inhibition IL-1): 89% | inhibition of IL-1 production ([1]; doses one or two logs higher than Compound 1): only marginally active | inhibition of IL-1 production, literature [9]: inhibit IL-1 production | inhibition at 0.1 µM [3]: 0% | inhibition at 1 µM [3]: 0% | inhibition at 10 µM [3]: 84%

COc1ccc(-c2nc3n(c2-c2ccncc2)CCS3)cc1 [Compound 6]
inhibition at 1 µM [1, 11]: 64%

CN/C(=N/CCSCc1nc[nH]c1C)NC#N [cimetidine]
protection from lethal effects of LPS/GALN [7]: not

CC(=O)OC[C@H]1O[C@@H]([S-])[C@H](OC(C)=O)[C@@H](OC(C)=O)[C@@H]1OC(C)=O.CCP(CC)CC.[Au+] [auranofin]
effect in adjuvant arthritic rats ([4]; therapeutic): no effect

Fc1ccc(-c2nc3n(c2-c2ccncc2)CCC3)cc1 [Compound 5]
inhibition at 1 µM [1, 11]: 78% | protection from lethal effects of LPS/GALN [7]: protective effects

COc1ccc(-c2nc3n(c2-c2ccncc2)CCCC3)cc1 [Compound 8]
inhibition at 1 µM [1, 11]: 30%

O=C1CCN(c2ccccc2)N1 [Phenidone, phenidone]
inhibition of IL-1 production [1]: marginally active in inhibition of IL-1 production | inhibition at 1 µM [1, 13]: 18% | inhibition at 0.1 µM [1, 14]: 0% | inhibition of prostaglandin synthesis [3]: little inhibitory effect on prostaglandin synthesis | inhibition at 1 µM ([3]; 10^-6 M): 0% | protection from lethal effects of LPS/GALN [7]: protective effects

C[C@]12C=CC(=O)C=C1CC[C@@H]1[C@@H]2[C@@H](O)C[C@@]2(C)[C@H]1CC[C@]2(O)C(=O)CO [PREDNISOLONE, Prednisolone]
IL-1 Production (splenic adherent cells), % normal control [4, 15]: 168 ± 40 % normal control | IL-1 Production (splenic adherent cells), % normal control [4, 16]: 300 ± 280 % normal control | Right leg paw edema, % normal control [5, 15]: 125 ± 22 % normal control | Right leg paw edema, % normal control [5, 16]: 147 ± 18 % normal control | % Adherent Cells (splenic), % normal control [6, 15]: 184 ± 79 % normal control | % Adherent Cells (splenic), % normal control [6, 16]: 82 ± 47 % normal control

CC(C)(S)[C@@H](N)C(=O)O [D-PENICILLAMINE, d-penicillamine]
IL-1 Production (splenic adherent cells), % normal control [4, 15]: 336 ± 170 % normal control | IL-1 Production (splenic adherent cells), % normal control [4, 16]: 374 % normal control | effect in adjuvant arthritic rats ([4]; therapeutic): no effect | Right leg paw edema, % normal control [5, 15]: 184 ± 20 % normal control | Right leg paw edema, % normal control [5, 16]: 191 ± 13 % normal control | % Adherent Cells (splenic), % normal control [6, 15]: 372 ± 117 % normal control | % Adherent Cells (splenic), % normal control [6, 16]: 217 ± 6 % normal control

O=S1(=O)CCn2c1nc(-c1ccc(F)cc1)c2-c1ccncc1 [Compound 3]
IC50 [1]: 0.61 µM | inhibition at 1 µM [1, 11]: 54%

Clc1ccc(C(c2ccc(Cl)cc2)n2cc[n+](CC(OCc3ccc(Cl)cc3Cl)c3ccc(Cl)cc3Cl)c2)cc1 (stereo not drawn) [calmidazolium]
prevention of endotoxin lethality [10]: prevented endotoxin lethality

CN(Cc1cnc2nc(N)nc(N)c2n1)c1ccc(C(=O)N[C@@H](CCC(=O)O)C(=O)O)cc1 [METHOTREXATE, methotrexate]
IL-1 Production (splenic adherent cells), % normal control [4, 15]: 67 ± 56 % normal control | IL-1 Production (splenic adherent cells), % normal control [4, 16]: 436 ± 178 % normal control | effect in adjuvant arthritic rats ([4]; therapeutic): no effect | Right leg paw edema, % normal control [5, 15]: 96 ± 4 % normal control | Right leg paw edema, % normal control [5, 16]: 194 ± 2 % normal control | % Adherent Cells (splenic), % normal control [6, 15]: 134 ± 10 % normal control | % Adherent Cells (splenic), % normal control [6, 16]: 284 ± 175 % normal control
